In patent publication US9914730B2, “Azaquinazoline inhibitors of Atypical protein Kinase C” (Ignyta, Inc., priority 2012, dated 2018):

target: T1, full-length human PKCι (Homo sapiens, UniProt P41743); assay: PKCι IC50 IMAP assay, full-length PKCι at 150 μM ATP; type: biochemical; details: read-out: IC50 in IMAP assay against full length PKCi at 150 μM ATP
T1 construct: Recombinant, full-length human PKCι expressed in Sf21 insect cells is also commercially available; purchased; host or cells: Sf21 insect cells
T1 sequence (P41743 1-596): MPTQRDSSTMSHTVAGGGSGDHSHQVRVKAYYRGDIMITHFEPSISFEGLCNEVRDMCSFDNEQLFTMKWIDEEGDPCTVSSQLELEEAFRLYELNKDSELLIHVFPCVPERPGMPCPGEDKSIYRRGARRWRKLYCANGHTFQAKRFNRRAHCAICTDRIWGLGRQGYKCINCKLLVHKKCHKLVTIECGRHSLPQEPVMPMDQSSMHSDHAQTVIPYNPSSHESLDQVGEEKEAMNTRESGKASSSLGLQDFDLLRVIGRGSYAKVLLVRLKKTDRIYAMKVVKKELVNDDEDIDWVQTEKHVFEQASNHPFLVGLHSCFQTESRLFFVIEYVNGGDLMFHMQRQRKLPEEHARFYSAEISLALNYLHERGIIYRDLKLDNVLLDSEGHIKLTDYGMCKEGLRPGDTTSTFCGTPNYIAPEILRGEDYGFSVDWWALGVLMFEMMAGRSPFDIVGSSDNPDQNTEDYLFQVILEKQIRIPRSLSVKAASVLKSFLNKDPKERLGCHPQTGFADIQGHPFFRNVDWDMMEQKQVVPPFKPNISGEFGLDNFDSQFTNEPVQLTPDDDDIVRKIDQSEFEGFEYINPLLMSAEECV
Procedure, shortened: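 Phosphorylation of a 5FAM-tagged PKCε pseudopeptide-derived substrate (100 nM) by full-length recombinant human PKCι was monitored by IMAP fluorescence polarisation. ATP was held at 150 μM, five times its apparent KM, with 60 min room-temperature incubation.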

Which IC50 does the source give for `N#Cc1ccnc(Nc2cc(-c3nc(N4CCN5C(=O)OCC5C4)c4c(C5CC5)cncc4n3)ccn2)c1` (centres unmarked) [Example 533, 2-{4-[5-Cyclopropyl-4-(3-oxo-tetrahydro-oxazolo[3,4-a]pyrazin-7-yl)-pyrido[3,4-d]pyrimidin-2-yl]-pyridin-2-ylamino}-isonicotinonitrile] here?
Its IC50 is 100 to 1000 nM.

How did the IC50 turn out when `FC(F)(F)c1cccc(Nc2cc(-c3nc(N4CCNCC4)c4c(C5CC5)cncc4n3)ccn2)n1` [Example 534, [4-(5-Cyclopropyl-4-piperazin-1-yl-pyrido[3,4-d]pyrimidin-2-yl)-pyridin-2-yl]-(6-trifluoromethyl-pyridin-2-yl)-amine] was run?
The IC50 was under 100 nM.

With `Fc1cncc(Nc2cc(-c3nc(N4CCNCC4)c4c(C5CC5)cncc4n3)ccn2)c1` [Example 535, [4-(5-Cyclopropyl-4-piperazin-1-yl-pyrido[3,4-d]pyrimidin-2-yl)-pyridin-2-yl]-(5-fluoro-pyridin-3-yl)-amine] as the molecule, how does the IC50 read?
The IC50 was 100 to 1000 nM.

Which IC50 does the source give for `FC(F)(F)c1ncccc1Nc1cc(-c2nc(N3CCNCC3)c3c(C4CC4)cncc3n2)ccn1` [Example 536, [4-(5-Cyclopropyl-4-piperazin-1-yl-pyrido[3,4-d]pyrimidin-2-yl)-pyridin-2-yl]-(2-trifluoromethyl-pyridin-3-yl)-amine] here?
The IC50 was 1000 to 10000 nM.

How did the IC50 turn out when `c1ccc(Nc2cc(-c3nc(N4CCNC5CC54)c4c(C5CC5)cncc4n3)ccn2)cc1` (centres unmarked) [Example 537, {4-[5-Cyclopropyl-4-(2,5-diaza-bicyclo-[4.1.0]hept-2-yl)-pyrido[3,4-d]-pyrimidin-2-yl]-pyridin-2-yl}-phenyl-amine] was run?
The IC50 was under 100 nM.

Which IC50 does the source give for `Fc1cccc(F)c1Nc1cc(-c2nc(N3CCNC4CC43)c3c(C4CC4)cncc3n2)ccn1` (centres unmarked) [Example 538, {4-[5-Cyclopropyl-4-(2,5-diaza-bicyclo-[4.1.0]hept-2-yl)-pyrido[3,4-d]pyrimidin-2-yl]-pyridin-2-yl}-(2,6-difluoro-phenyl)-amine] here?
The IC50 was under 100 nM.

For `Clc1cccc(Cl)c1Nc1cc(-c2nc(N3CCNCC3)c3c(C4CC4)cncc3n2)ccn1` [Example 539, [4-(5-Cyclopropyl-4-piperazin-1-yl-pyrido[3,4-d]pyrimidin-2-yl)-pyridin-2-yl]-(2,6-dichloro-phenyl)-amine], which IC50 is on record?
Its IC50 is under 100 nM.

`Cc1cccc(Nc2cc(-c3nc(N4CCNCC4)c4c(C5CC5)cncc4n3)ccn2)c1C` [Example 540, [4-(5-Cyclopropyl-4-piperazin-1-yl-pyrido[3,4-d]pyrimidin-2-yl)-pyridin-2-yl]-(2,3-dimethyl-phenyl)-amine] was tested. Which IC50 did it give?
Its IC50 is under 100 nM.

For `Cc1cccc(C)c1Nc1cc(-c2nc(N3CCNCC3)c3c(C4CC4)cncc3n2)ccn1` [Example 541, [4-(5-Cyclopropyl-4-piperazin-1-yl-pyrido[3,4-d]pyrimidin-2-yl)-pyridin-2-yl]-(2,6-dimethyl-phenyl)-amine], which IC50 is on record?
Its IC50 is under 100 nM.

`Clc1cccc(Nc2cc(-c3nc(N4CCNCC4)c4c(C5CC5)cncc4n3)ccn2)c1Cl` [Example 542, [4-(5-Cyclopropyl-4-piperazin-1-yl-pyrido[3,4-d]pyrimidin-2-yl)-pyridin-2-yl]-(2,3-dichloro-phenyl)-amine] was tested. Which IC50 did it give?
The IC50 was 100 to 1000 nM.

How did the IC50 turn out when `Cc1ncccc1Nc1cc(-c2nc(N3CCNCC3)c3c(C4CC4)cncc3n2)ccn1` [Example 544, [4-(5-Cyclopropyl-4-piperazin-1-yl-pyrido[3,4-d]pyrimidin-2-yl)-pyridin-2-yl]-(2-methyl-pyridin-3-yl)-amine] was run?
Its IC50 is under 100 nM.

`c1cnnc(Nc2cc(-c3nc(N4CCNCC4)c4c(C5CC5)cncc4n3)ccn2)c1` [Example 545, [4-(5-Cyclopropyl-4-piperazin-1-yl-pyrido[3,4-d]pyrimidin-2-yl)-pyridin-2-yl]-pyridazin-3-yl-amine] was tested. Which IC50 did it give?
The IC50 was under 100 nM.

`Cc1ccc(Nc2cc(-c3nc(N4CCNCC4)c4c(C5CC5)cncc4n3)ccn2)cn1` [Example 546, [4-(5-Cyclopropyl-4-piperazin-1-yl-pyrido[3,4-d]pyrimidin-2-yl)-pyridin-2-yl]-(6-methyl-pyridin-3-yl)-amine] was tested. Which IC50 did it give?
Its IC50 is under 100 nM.

`COc1ccc(Nc2cc(-c3nc(N4CCNCC4)c4c(C5CC5)cncc4n3)ccn2)cn1` [Example 547, [4-(5-Cyclopropyl-4-piperazin-1-yl-pyrido[3,4-d]pyrimidin-2-yl)-pyridin-2-yl]-(6-methoxy-pyridin-3-yl)-amine] was tested. Which IC50 did it give?
Its IC50 is under 100 nM.

With `Fc1ccc(F)c(Nc2cc(-c3nc(N4CCNCC4)c4c(C5CC5)cncc4n3)ccn2)n1` [Example 548, [4-(5-Cyclopropyl-4-piperazin-1-yl-pyrido[3,4-d]pyrimidin-2-yl)-pyridin-2-yl]-(3,6-difluoro-pyridin-2-yl)-amine] as the molecule, how does the IC50 read?
The IC50 was under 100 nM.

Which IC50 does the source give for `CP(C)(=O)c1ccc(Nc2cc(-c3nc(N4CCNCC4)c4c(C5CC5)cncc4n3)ccn2)cc1` [Example 549, [4-(5-Cyclopropyl-4-piperazin-1-yl-pyrido[3,4-d]pyrimidin-2-yl)-pyridin-2-yl]-[4-(dimethyl-phosphinoyl)-phenyl]-amine] here?
Its IC50 is under 100 nM.

`CCP(=O)(CC)c1ccc(Nc2cc(-c3nc(N4CCNCC4)c4c(C5CC5)cncc4n3)ccn2)cc1` [Example 550, [4-(5-Cyclopropyl-4-piperazin-1-yl-pyrido[3,4-d]pyrimidin-2-yl)-pyridin-2-yl]-[4-(diethyl-phosphinoyl)-phenyl]-amine] was tested. Which IC50 did it give?
The IC50 was under 100 nM.

For `CN(C)c1ccc(Nc2cc(-c3nc(N4CCNCC4)c4c(C5CC5)cncc4n3)ccn2)cn1` [Example 551, N^5-[4-(5-Cyclopropyl-4-piperazin-1-yl-pyrido[3,4-d]pyrimidin-2-yl)-pyridin-2-yl]-N^2,N^2-dimethyl-pyridine-2,5-diamine], which IC50 is on record?
The IC50 was under 100 nM.

For `FC[C@H]1CN(c2nc(-c3ccnc(Nc4ccccc4)c3)nc3cncc(C4CC4)c23)CCN1` [Example 552, {4-[5-Cyclopropyl-4-((R)-3-fluoromethyl-piperazin-1-yl)-pyrido[3,4-d]pyrimidin-2-yl]-pyridin-2-yl}-phenyl-amine], which IC50 is on record?
Its IC50 is under 100 nM.

How did the IC50 turn out when `COc1ccc(C)c(Nc2cc(-c3nc(N4CCNCC4)c4c(C5CC5)cncc4n3)ccn2)c1` [Example 553, [4-(5-Cyclopropyl-4-piperazin-1-yl-pyrido[3,4-d]pyrimidin-2-yl)-pyridin-2-yl]-{5-methoxy-2-methyl-phenyl)-amine] was run?
Its IC50 is under 100 nM.

With `Cc1ccc(C(F)(F)F)cc1Nc1cc(-c2nc(N3CCNCC3)c3c(C4CC4)cncc3n2)ccn1` [Example 554, [4-(5-Cyclopropyl-4-piperazin-1-yl-pyrido[3,4-d]pyrimidin-2-yl)-pyridin-2-yl]-(2-methyl-5-trifluoromethyl-phenyl)-amine] as the molecule, how does the IC50 read?
Its IC50 is 100 to 1000 nM.

With `Fc1ccc(OC(F)(F)F)cc1Nc1cc(-c2nc(N3CCNCC3)c3c(C4CC4)cncc3n2)ccn1` [Example 555, [4-(5-Cyclopropyl-4-piperazin-1-yl-pyrido[3,4-d]pyrimidin-2-yl)-pyridin-2-yl]-(2-fluoro-5-trifluoromethoxy-phenyl)-amine] as the molecule, how does the IC50 read?
The IC50 was 100 to 1000 nM.

For `CS(=O)(=O)c1ccc(F)c(Nc2cc(-c3nc(N4CCNCC4)c4c(C5CC5)cncc4n3)ccn2)c1` [Example 556, [4-(5-Cyclopropyl-4-piperazin-1-yl-pyrido[3,4-d]pyrimidin-2-yl)-pyridin-2-yl]-(2-fluoro-5-methanesulfonyl-phenyl)-amine], which IC50 is on record?
Its IC50 is under 100 nM.

Which IC50 does the source give for `Cc1ccc(F)c(Nc2cc(-c3nc(N4CCNCC4)c4c(C5CC5)cncc4n3)ccn2)c1F` [Example 557, [4-(5-Cyclopropyl-4-piperazin-1-yl-pyrido[3,4-d]pyrimidin-2-yl)-pyridin-2-yl]-(2,6-difluoro-3-methyl-phenyl)-amine] here?
The IC50 was under 100 nM.

`Cc1ccc(C(C)C)cc1Nc1cc(-c2nc(N3CCNCC3)c3c(C4CC4)cncc3n2)ccn1` [Example 558, [4-(5-Cyclopropyl-4-piperazin-1-yl-pyrido[3,4-d]pyrimidin-2-yl)-pyridin-2-yl]-(5-isopropyl-2-methyl-phenyl)-amine] was tested. Which IC50 did it give?
The IC50 was 100 to 1000 nM.

For `[2H]c1c([2H])c([2H])c(Nc2cc(-c3nc(N4CCNCC4)c4c(C5CC5)cncc4n3)ccn2)c([2H])c1[2H]` [Example 559, [4-(5-Cyclopropyl-4-piperazin-1-yl-pyrido[3,4-d]pyrimidin-2-yl)-pyridin-2-yl]-pentdeuterio-phenyl-amine], which IC50 is on record?
Its IC50 is under 100 nM.

`CC(O)c1ccccc1Nc1cc(-c2nc(N3CCNCC3)c3c(C4CC4)cncc3n2)ccn1` (centres unmarked) [Example 560, 1-{2-[4-(5-Cyclopropyl-4-piperazin-1-yl-pyrido[3,4-d]pyrimidin-2-yl)-pyridin-2-ylamino]-phenyl}-ethanol] was tested. Which IC50 did it give?
Its IC50 is 100 to 1000 nM.

`N[C@H]1CCC[C@H]1C(=O)Nc1cc(-c2nc(N3CCNCC3)c3c(C4CC4)cncc3n2)ccn1` [Example 561, (1R,2S)-2-Amino-cyclopentane-carboxylic acid [4-(5-cyclopropyl-4-piperazin-1-yl-pyrido[3,4-d]pyrimidin-2-yl)-pyridin-2-yl]-amide] was tested. Which IC50 did it give?
The IC50 was under 100 nM.

`OC1(C2CN(c3nc(-c4ccnc(Cl)c4)nc4cncc(C5CC5)c34)CCN2)CC1` (centres unmarked) [Example 562, 1-{4-[2-(2-Chloro-pyridin-4-yl)-5-cyclopropyl-pyrido[3,4-d]pyrimidin-4-yl]-piperazin-2-yl}-cyclopropanol] was tested. Which IC50 did it give?
Its IC50 is 100 to 1000 nM.
